Test [1] deals with EZH1 (Homo sapiens (Human), UniProt Q92800). Put plainly: EZH1 methyltransferase inhibitory activity (radiometric scintillation proximity assay).
Experimental: The inhibitory activity of the synthesized compounds above against EZH1 or EZH2 methyltransferase was measured. The experiments were consigned to Reaction Biology, and EZH1 or EZH2 activity was measured using a radiometric scintillation proximity assay. […] The buffer solution was comprised of 50 mmol/L Tris-HCl pH 8.0, 50 mmol/L NaCl, 1 mmol/L EDTA, 1 mmoL/L DTT, 1 mmol/L PMSF and 1% DMSO. Trichloroacetic acid was added to end the reaction, and SPA beads coated with PVT streptavidin were added followed by 1 hour reaction at room temperature. A TopCount NXT plate reader was used to measure the methylation value of the substrate peptide. The measured values were converted to percent activity, setting the mean value for wells treated with DMSO as 100% and the background mean value as 0%.
Test [2] deals with KARPAS-422 cells. As to the kind of experiment: Cell growth inhibition test (CTG method). The test is classed as cell-based. The note with it: Homo sapiens, KARPAS-422, 168 h, KARPAS-422 (EZH2^Y641N mutant), culturing for 7 days; read-out: Cell growth inhibitory activity (GI50, nM) KARPAS-422 (EZH2^Y641N mutant). How it is done:
The cultured cell strain was prepared at 1.8×10^4 cells/400 μL and placed in a 48-well plate.

The mark [3] stands for this setting: read-out: Enzyme inhibitory activity (IC50, nM) EZH1, 2.3 nmol/L EZH1, 90 minutes at room temperature.

Read-outs that look alike come from different tables or passages of the source.

For orientation: IC50 means the point on the concentration scale where inhibition reaches its midpoint. By GI50 is commonly meant the concentration giving 50% growth inhibition.

Chain of EZH1 (Q92800 whole entry): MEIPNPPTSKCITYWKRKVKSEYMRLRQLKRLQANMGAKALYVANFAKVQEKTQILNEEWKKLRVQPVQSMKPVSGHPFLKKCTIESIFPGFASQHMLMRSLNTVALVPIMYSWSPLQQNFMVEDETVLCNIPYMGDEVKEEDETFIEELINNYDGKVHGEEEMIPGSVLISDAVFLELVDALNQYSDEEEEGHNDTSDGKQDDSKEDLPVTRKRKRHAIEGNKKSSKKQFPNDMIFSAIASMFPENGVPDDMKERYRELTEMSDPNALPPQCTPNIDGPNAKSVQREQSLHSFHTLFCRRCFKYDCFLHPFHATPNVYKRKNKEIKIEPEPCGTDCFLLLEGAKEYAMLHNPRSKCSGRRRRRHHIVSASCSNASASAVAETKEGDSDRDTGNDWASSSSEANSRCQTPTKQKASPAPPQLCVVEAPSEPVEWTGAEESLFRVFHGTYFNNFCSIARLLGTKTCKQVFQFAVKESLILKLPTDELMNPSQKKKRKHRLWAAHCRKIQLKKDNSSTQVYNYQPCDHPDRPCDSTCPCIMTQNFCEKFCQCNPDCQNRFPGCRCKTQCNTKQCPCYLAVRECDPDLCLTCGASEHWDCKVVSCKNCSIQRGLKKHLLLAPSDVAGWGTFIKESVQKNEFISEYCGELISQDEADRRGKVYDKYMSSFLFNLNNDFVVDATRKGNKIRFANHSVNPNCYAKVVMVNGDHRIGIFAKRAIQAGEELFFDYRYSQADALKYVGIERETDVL
Chain of EZH1 (O75530 whole entry partner): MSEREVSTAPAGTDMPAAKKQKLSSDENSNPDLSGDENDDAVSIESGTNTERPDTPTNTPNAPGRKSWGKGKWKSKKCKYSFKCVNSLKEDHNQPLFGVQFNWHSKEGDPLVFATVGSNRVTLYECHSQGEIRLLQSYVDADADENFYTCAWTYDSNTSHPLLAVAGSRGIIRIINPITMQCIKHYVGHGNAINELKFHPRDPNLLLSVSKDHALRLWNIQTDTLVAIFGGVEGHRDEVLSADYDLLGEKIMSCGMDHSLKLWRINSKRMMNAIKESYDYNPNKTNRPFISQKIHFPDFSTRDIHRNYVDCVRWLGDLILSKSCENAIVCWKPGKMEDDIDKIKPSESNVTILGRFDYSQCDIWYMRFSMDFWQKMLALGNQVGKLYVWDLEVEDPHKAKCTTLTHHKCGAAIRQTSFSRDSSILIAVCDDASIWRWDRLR
Chain of EZH1 (Q15022 whole entry partner): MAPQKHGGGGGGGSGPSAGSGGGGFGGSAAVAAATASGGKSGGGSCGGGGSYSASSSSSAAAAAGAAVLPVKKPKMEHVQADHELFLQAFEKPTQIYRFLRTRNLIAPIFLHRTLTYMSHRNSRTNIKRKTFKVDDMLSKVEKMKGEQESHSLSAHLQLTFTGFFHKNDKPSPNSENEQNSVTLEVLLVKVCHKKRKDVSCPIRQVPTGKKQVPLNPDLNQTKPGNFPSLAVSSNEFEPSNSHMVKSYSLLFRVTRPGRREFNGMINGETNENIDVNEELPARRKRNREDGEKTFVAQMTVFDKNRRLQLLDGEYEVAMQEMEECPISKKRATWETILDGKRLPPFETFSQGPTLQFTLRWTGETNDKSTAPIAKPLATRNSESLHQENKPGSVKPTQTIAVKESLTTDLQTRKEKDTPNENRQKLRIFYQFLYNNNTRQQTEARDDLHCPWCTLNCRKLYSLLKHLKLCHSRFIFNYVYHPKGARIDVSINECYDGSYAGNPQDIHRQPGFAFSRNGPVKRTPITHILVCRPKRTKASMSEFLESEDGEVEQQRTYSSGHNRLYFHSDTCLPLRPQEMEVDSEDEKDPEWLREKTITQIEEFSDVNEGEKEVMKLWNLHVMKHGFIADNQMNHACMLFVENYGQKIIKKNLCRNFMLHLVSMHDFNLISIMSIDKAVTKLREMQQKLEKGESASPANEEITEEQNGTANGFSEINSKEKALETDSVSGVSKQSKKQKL
Chain of EZH1 (Q09028 whole entry partner): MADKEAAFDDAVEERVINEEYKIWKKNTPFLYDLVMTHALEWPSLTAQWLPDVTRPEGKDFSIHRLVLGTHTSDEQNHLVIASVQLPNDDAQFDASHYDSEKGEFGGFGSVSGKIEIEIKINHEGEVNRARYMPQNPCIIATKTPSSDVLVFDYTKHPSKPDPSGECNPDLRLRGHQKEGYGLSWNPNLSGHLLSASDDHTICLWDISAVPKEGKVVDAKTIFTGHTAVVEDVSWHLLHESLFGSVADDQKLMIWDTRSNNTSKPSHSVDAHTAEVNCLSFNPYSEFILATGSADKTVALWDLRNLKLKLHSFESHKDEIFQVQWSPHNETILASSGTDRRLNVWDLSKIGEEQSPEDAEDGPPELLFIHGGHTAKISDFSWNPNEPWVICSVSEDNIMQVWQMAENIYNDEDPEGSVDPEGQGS
Chain of EZH1 (Q6ZN18 whole entry partner): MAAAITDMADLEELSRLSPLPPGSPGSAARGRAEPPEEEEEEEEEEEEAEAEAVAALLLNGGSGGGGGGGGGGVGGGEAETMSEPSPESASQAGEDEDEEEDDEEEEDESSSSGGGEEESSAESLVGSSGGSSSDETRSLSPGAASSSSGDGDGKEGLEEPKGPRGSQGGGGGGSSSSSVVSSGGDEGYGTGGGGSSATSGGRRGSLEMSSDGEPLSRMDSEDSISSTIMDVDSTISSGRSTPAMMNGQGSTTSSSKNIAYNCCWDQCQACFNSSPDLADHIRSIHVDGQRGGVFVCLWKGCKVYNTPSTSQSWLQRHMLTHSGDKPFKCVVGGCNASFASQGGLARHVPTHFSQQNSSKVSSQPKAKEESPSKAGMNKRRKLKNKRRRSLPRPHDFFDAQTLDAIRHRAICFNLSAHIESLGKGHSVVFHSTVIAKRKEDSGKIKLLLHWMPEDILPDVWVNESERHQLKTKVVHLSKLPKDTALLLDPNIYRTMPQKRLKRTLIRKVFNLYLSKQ

`Cc1cc(C)c(CN2CCc3c(c(C)c4c(c3-c3ccco3)O[C@](C)([C@H]3CC[C@H](N(C)C)CC3)O4)C2=O)c(=O)[nH]1` [Compound 30, (R)-6-((4,6-dimethyl-2-oxo-1,2-dihydropyridin-3-yl)methyl)-2-(trans-4-(dimethylamino)cyclohexyl)-9-(furan-2-yl)-2,4-dimethyl-7,8-dihydro-[1,3]dioxolo[4,5-g]isoquinolin-5(6H)-one] returned an IC50 in test [1] of 8.3 to 10 nM. Besides, the 50% growth inhibitory concentration (GI50) in test [2] lay in the range of 3.9 to 8.4 nM.

For the compound `Cc1cc(C)c(CN2CCc3c(c(C)c4c(c3-c3cccs3)O[C@](C)([C@H]3CC[C@H](N(C)C)CC3)O4)C2=O)c(=O)[nH]1` [Compound 32, (R)-6-((4,6-dimethyl-2-oxo-1,2-dihydropyridin-3-yl)methyl)-2-(trans-4-(dimethylamino)cyclohexyl)-2,4-dimethyl-9-(thiophen-2-yl)-7,8-dihydro-[1,3]dioxolo[4,5-g]isoquinolin-5(6H)-one], in test [1] (setting [3]), the IC50 stood at 12 nM. Also, in test [2], the GI50 came to 3.4 nM.

For the compound `Cc1cc(C)c(CN2CCc3c(c(C)c4c(c3-c3ccncc3)O[C@](C)([C@H]3CC[C@H](N(C)C)CC3)O4)C2=O)c(=O)[nH]1` [Compound 34, (R)-6-((4,6-dimethyl-2-oxo-1,2-dihydropyridin-3-yl)methyl)-2-(trans-4-(dimethylamino)cyclohexyl)-2,4-dimethyl-9-(pyridin-4-yl)-7,8-dihydro-[1,3]dioxolo[4,5-g]isoquinolin-5(6H)-one], the 50% inhibitory concentration (IC50) in test [1] (setting [3]) came to 32 nM. The GI50 in test [2] came to 3.7 nM.

Turning to `Cc1cc(C)c(CN2CCc3c(c(C)c4c(c3-c3ccc(C)o3)O[C@](C)([C@H]3CC[C@H](N(C)C)CC3)O4)C2=O)c(=O)[nH]1` [Compound 40, (R)-6-((4,6-dimethyl-2-oxo-1,2-dihydropyridin-3-yl)methyl)-2-(trans-4-(dimethylamino)cyclohexyl)-2,4-dimethyl-9-(5-methylfuran-2-yl)-7,8-dihydro-[1,3]dioxolo[4,5-g]isoquinolin-5(6H)-one], the half-inhibitory concentration (IC50) in test [1] (setting [3]) turned out to be 22 nM. Besides, in test [2], the concentration for 50% growth inhibition (GI50) is 4.4 to 5.5 nM.

On to `Cc1cc(C)c(CN2CCc3c(c(C)c4c(c3-c3cccnc3)O[C@](C)([C@H]3CC[C@H](N(C)C)CC3)O4)C2=O)c(=O)[nH]1` [Compound 44, (R)-6-((4,6-dimethyl-2-oxo-1,2-dihydropyridin-3-yl)methyl)-2-(trans-4-(dimethylamino)cyclohexyl)-2,4-dimethyl-9-(pyridin-3-yl)-7,8-dihydro-[1,3]dioxolo[4,5-g]isoquinolin-5(6H)-one], for which, in test [1] (setting [3]), the concentration for half-maximal inhibition (IC50) amounted to 14 nM. The 50% growth inhibitory concentration (GI50) in test [2] was determined as 5.1 nM.

As to `Cc1cc(C)c(CN2CCc3c(c(C)c4c(c3-c3cccn3C)O[C@](C)([C@H]3CC[C@H](N(C)C)CC3)O4)C2=O)c(=O)[nH]1` [Compound 48, (R)-6-((4,6-dimethyl-2-oxo-1,2-dihydropyridin-3-yl)methyl)-2-(trans-4-(dimethylamino)cyclohexyl)-2,4-dimethyl-9-(1-methyl-1H-pyrrol-2-yl)-7,8-dihydro-[1,3]dioxolo[4,5-g]isoquinolin-5(6H)-one], the IC50 in test [1] (setting [3]) is 20 nM. For the same compound, the GI50 in test [2] was found to be 5.5 nM.

Turning to `Cc1cc(C)c(CN2CCc3c(c(C)c4c(c3-c3ccsc3)O[C@](C)([C@H]3CC[C@H](N(C)C)CC3)O4)C2=O)c(=O)[nH]1` [Compound 50, (R)-6-((4,6-dimethyl-2-oxo-1,2-dihydropyridin-3-yl)methyl)-2-(trans-4-(dimethylamino)cyclohexyl)-2,4-dimethyl-9-(thiophen-3-yl)-7,8-dihydro-[1,3]dioxolo[4,5-g]isoquinolin-5(6H)-one], in test [1] (setting [3]), the half-inhibitory concentration (IC50) was 22 nM. In addition, the GI50 in test [2] stood at 4.9 nM.

On to `Cc1cc(C)c(CN2CCc3c(c(C)c4c(c3-c3cncs3)O[C@](C)([C@H]3CC[C@H](N(C)C)CC3)O4)C2=O)c(=O)[nH]1` [Compound 52, (R)-6-((4,6-dimethyl-2-oxo-1,2-dihydropyridin-3-yl)methyl)-2-(trans-4-(dimethylamino)cyclohexyl)-2,4-dimethyl-9-(thiazol-5-yl)-7,8-dihydro-[1,3]dioxolo[4,5-g]isoquinolin-5(6H)-one], for which the IC50 in test [1] (setting [3]) was 18 nM. Also, in test [2], the GI50 was 5.9 nM.

The values are drawn from patent US11535629B2, “Dioxoloisoquinolinone derivatives and use thereof” (HANMI PHARMACEUTICAL CO., LTD., priority 2020, dated 2022).
